{"source": "patent US20170035049A1", "about": "“BIOCIDAL PRODUCTS” (SALVECO, priority 2014, published 2017)", "assay": "Ultimate aerobic biodegradability in aqueous medium (OECD 301 A)", "settings": "on the fourteenth day", "description": "This test is an evaluation in an aqueous medium of the ultimate aerobic biodegradability of a sample of the concentrated formulation according to the invention. This test is performed according to the provisions of the OECD 301 A method using a sample containing a dissolved organic carbon content of 10 mg/l (DOC for dissolved organic carbon). The evolution of the disappearance of dissolved organic carbon is followed during a period of 28 days in the “Concentrated disinfection” test at 10 mg/l of DOC. The physical-chemical analysis is performed according to the ASTM […] standard. The attached FIG. 1 represents the resulting curves of degradation of the organic carbon dissolved after 28 days. The reference substance corresponds to sodium acetate.", "data": [{"smiles": "CC(=O)[O-].[Na+]", "note": "[sodium acetate]", "values": [{"measurement": "percentage of degradation of the reference substance", "result": 99, "unit": "%"}]}]}
